The values that follow come from US20010031282A1, “Process for the manufacture of a pulverous preparation” (ROCHE VITAMINS INC., priority 1996, published 2001).

Like-named read-outs stand apart in the source and are kept apart here. Where only a bound is given, the exact number is not on record here.

Data set [1] is described as follows: Solubility of pharmaceuticals in carbon dioxide (Example 7). The format is physicochemical. On the procedure: (§1) A comparison of solubility's of a number of pharmaceuticals was performed in the following way:
(§2) Approximately 3-5 g of the pharmaceutical was slightly compressed in an uniaxial press to avoid the formation of a stable suspension. The so compressed powder was given in a pressure chamber with a sapphire glass (30 ml volume). The temperature of the pressure chamber was controlled by water bath. Then the pressure in the chamber was increased using the corresponding gas and equilibrated for 1-3 hours. After equilibration a defined sample (1.0 ml) was drawn under constant pressure and temperature conditions using a high pressure line with a defined volume. […] The sample container was afterwards rinsed with the same liquid to collect the residues of the substance in the sample container.
(§3) The solubility (G/V) was determined either by HPLC or gravimetrically after removing the liquid.

The nature of data set [2]: Solubility of pharmaceuticals in dimethylether (Example 7). The format is physicochemical. On the procedure:
as §1, §2, §3

Data set [3] can be described thus: Volume weighted particle size distribution after spraying (Examples 8, 9). The settings on record: dissolved at 40° C., 200×10^5 Pa, sprayed into second autoclave. The format is physicochemical. The procedure:
100 g of solid Orlistat in a container with two sinter plates was charged into an autoclave having a volume of 6 l. The autoclave was kept at a temperature of 40° C. with a water bath. Then the autoclave was filled with gas up to a pressure of 200×10^5 Pa and equilibrated for 90 min. The autoclave was connected to a second autoclave via a heated high pressure line, kept at 40° C. This second autoclave has a volume of 4 l. The dissolved Orlistat was sprayed into this second autoclave. Thereby the pressure of the first autoclave was kept constant at 200×10^5 Pa by pumping in additional gas. The resulting volume weighted particle size distribution is as follows: 100 g of solid Saquinavir in a container with two sinter plates was charged into an autoclave having a volume of 6 l. The autoclave was kept at a temperature of 40° C. with a water bath. Then the autoclave was filled with gas up to a pressure of 200×10^5 Pa and equilibrated for 90 min. The autoclave was connected to a second autoclave via a heated high pressure line, kept at 40° C. This second autoclave has a volume of 4 l. The dissolved Saquinavir was sprayed into this second autoclave. Thereby the pressure of the first autoclave was kept constant at 200×10^5 Pa by pumping in additional gas. The resulting volume weighted particle size distribution is as follows: […]

The procedure of data set [4]:
250 g of solid trans-apoester (Ethyl-8′-apo-β-carotene-8′oate) were charged into an autoclave. The autoclave was adjusted to a temperature of 67° C. […] 1003 g of the solution was sprayed into a spray-tower via a nozzle having a bore hole of 0.2 mm. The flow rate was 84 g/min. During the spray procedure the pressure in the autoclave was maintained at 150×10^5 Pa by supplementation with fresh dimethyl ether. The sample composition was determined gravimetrically.

The nature of data set [5]: Solubility / miscibility of β-carotene in dimethyl ether. The format is physicochemical. On the procedure:
It has now been discovered that dimethyl ether is useful as a solvent for β-carotene in processes such as those described above where the material to be produced as a powder is dissolved in a solvent at high temperature and pressure, and then the pressure is reduced whereby the solubility of the dissolved material decreases to the point where it precipitates from the solution as a fine powder. […] From PCT Patent Publication WO 96/15133 it is already known that dimethyl ether is an excellent solvent at elevated temperature and pressure conditions. The solubility of β-carotene in liquid dimethyl ether is strongly temperature dependent. About 1.1 wt. % of β-carotene dissolve in liquid dimethyl ether (vapour pressure 4 bar) at 25° C. At 60° C. (vapour pressure 15 bar) already 2.7 wt. % dissolve. At higher pressures (up to 300 bar) the solubility is practically not increased in this temperature region.
Thus, a homogeneous solution of β-carotene and dimethyl ether exists at 105° C. and pressures above 140 bar.
250 g of solid trans-β-carotene were charged into an autoclave having a volume of 1 l. The autoclave was thermostatted electrically to a temperature of 105° C. 500 g of dimethyl ether (cosmetic grade) were pumped into the autoclave. Dissolution of the carotene took about 60 minutes, with shaking of the autoclave. The pressure was then 175×10^5 Pa. A sample was taken at both the top and bottom lids of the autoclave. The sample compositions were determined gravimetrically. Both samples gave a carotene content of 33 wt. % and a dimethyl ether content of 67 wt. %, i.e. a homogeneous phase of carotene and dimethyl ether was present in the autoclave.

Data set [6] can be described thus: Stability of β-carotene in liquid solutions with highly compressible gases. As to conditions: temperatures in the region of its melting point of 180° C. The format is physicochemical. On the procedure: In analogy to the procedure described in WO 95/21688 it has been investigated whether β-carotene forms liquid solutions with the mentioned and other highly compressible substances. β-Carotene forms liquid solutions with the gases only at temperatures in the region of its melting point of 180° C.

The conditions of data set [7]: 500 bar, cited from earlier work.
The conditions of data set [8]: carbon dioxide or dinitrogen monoxide, pressures up to 500 bar; cited from earlier work.
For data set [9] the following is noted: cited from earlier work.

Consider `COc1ccccc1Oc1c(NS(=O)(=O)c2ccc(C(C)(C)C)cc2)nc(-c2ncccn2)nc1OCCO` [Bosentan], for which the “solubility (CO2)” value in data set [1] (45° C./200×10^5 Pa) was <0.1 % (g/V). Moreover, the “solubility (CH3—O—CH3)” value in data set [2] (45° C./200×10^5 Pa) is reported as 9.0 % (g/V).
Taken in the same sequence, the figures for `CC1=C(/C=C/C(C)=C/C=C/C(C)=C\C(=O)O)C(C)(C)CCC1` [Isotretionin] were 0.3 % (g/V) and 6.0 % (g/V).
Taken in the same sequence, the figures for `O=C(NCCN1CCOCC1)c1ccc(Cl)cc1` [Moclobemide] were 0.35 % (g/V) and 3.7 % (g/V).
Regarding `CCCCCCCCCCC[C@@H](C[C@@H]1OC(=O)[C@H]1CCCCCC)OC(=O)[C@H](CC(C)C)NC=O` [Orlistat], the “solubility (CO2)” value in data set [1] (30° C./100×10^5 Pa) is 0.6 % (g/V). Besides, in data set [3], the “particle size, 10% of the particles (volume weighted)” value is on record as “≦0.40 μm”; the “particle size, 50% of the particles (volume weighted)” value is listed as “≦1.02 μm”; the “particle size, 90% of the particles (volume weighted)” value is on record as “≦2.43 μm”. In addition, the “solubility (CH3—O—CH3)” value in data set [2] (20° C./4.5×10^5 Pa) was 17.8 % (g/V).
As to `CC(C)(C)NC(=O)[C@@H]1C[C@@H]2CCCC[C@@H]2CN1C[C@@H](O)[C@H](Cc1ccccc1)NC(=O)[C@H](CC(N)=O)NC(=O)c1ccc2ccccc2n1` [Saquinavir], the “solubility (CO2)” value in data set [1] (45° C./200×10^5 Pa) is <0.1 % (g/V). Moreover, in data set [3], the “particle size, 10% of the particles (volume weighted)” value is listed as “≦0.4 μm”; the “particle size, 50% of the particles (volume weighted)” value is “≦0.9 μm”; the “particle size, 90% of the particles (volume weighted)” value is listed as “≦1.8 μm”. In data set [2] (25° C./100×10^5 Pa), the “solubility (CH3—O—CH3)” value is >10 % (g/V).
With `CCOC(=O)/C(C)=C/C=C/C(C)=C/C=C/C=C(C)/C=C/C=C(C)/C=C/C1=C(C)CCCC1(C)C` [apoester, Ethyl-8′-apo-β-carotene-8′oate], the “content of the apoester in the sprayed dimethyl ether solution (gravimetric)” value in data set [4] (67° C., 150×10^5 Pa, equilibrated 30 minutes) was 10 wt %. In data set [4] (Example 6, sprayed from dimethyl ether, 67° C., 150×10^5 Pa, nozzle 0.2 mm), the particle size worked out at 9 μm. Moreover, the mean particle size in data set [4] (Example 10, powder with gelatin/sucrose matrix, starch catch process) was 0.23 μm.
On to `CC1=C(/C=C/C(C)=C/C=C/C(C)=C/C=C/C=C(C)/C=C/C=C(C)/C=C/C2=C(C)CCCC2(C)C)C(C)(C)CCC1` [β-carotene], for which the “solubility in liquid dimethyl ether” value is “About 1.1 wt. %” in [5] (25° C., vapour pressure 4 bar) and 2.7 wt. % in data set [5] (60° C., vapour pressure 15 bar). For the same compound, in data set [5] (105° C., 175×10^5 Pa, Example 1), the “carotene content of the homogeneous dimethyl ether phase (gravimetric)” value is 33 wt. %. For the same compound, in data set [5] (105° C., pressures above 140 bar), the “miscibility with dimethyl ether” value is recorded as “miscible without limitation in any ratio”. Besides, the “stability in liquid solution with the gases” value in [6] was “isomerizes or decomposes after a very short time”. Further, the figures for the “solubility in carbon dioxide” value in data set [7] (35° C.) and in data set [7] (55° C.) were 0.00049 wt. % and 0.0016 wt. %, respectively. Besides, the “β-carotene concentration in supercritical gases” value in data set [8] is given as 0.01 wt. %. The “dissolution in liquid sulphur dioxide” value in data set [9] (15° C.) was 0.59 wt. %. The “highest concentration in supercritical fluids (ethylene)” value in data set [9] (ethylene, 55° C., 500 bar) is given as 0.035 wt. %. In addition, in data set [9] (liquid solvents except CS2), the “concentration in the solvents which are liquid at room temperature” value is listed as “below 1 wt. %”. In addition, the “solubility in CS2” value in data set [9] (room temperature) was 3.5 wt. %.
